This note sets out measurements from patent US7557181B2, “Pan-HER antagonists and methods of use” (Molecular Logix, Inc., priority 2005, dated 2009).

Assay [1] concerns HER5 cells (mouse fibroblast cells that overexpress human EGFR). Nature of the assay: HER5 cell proliferation stimulation assay (WST-1). Type of assay: cell-based. To be noted: serum-free, 48 hour proliferation period, FIG. 3. As for the experimental part: Hung (MD Anderson Cancer Center). Stock cultures of HER5 were propagated in D-MEM/F12 medium containing 10% fetal bovine serum, 100 units/ml of penicillin and 100 ug/ml of streptomycin in a water-jacketed incubator at 37° C. in a humidified 5% CO2 atmosphere. For HER5 proliferation assays, the cells were changed into DMEM/F12 without serum for 24 hours. Cells were then trypsinized and suspended at 1E5 cells/ml. […] Fifty microliters of cell suspension (5000 cells) were added to appropriate wells bringing the total volume to 100 ul at the desired concentrations. Plates were incubated for a 48 hour proliferation period. Cell proliferation was determined by addition of 10 ul/well of WST-1 Cell Proliferation Reagent (Roche Applied Sciences, Indianapolis, Ind.) for the last three hours of the proliferation period. WST-1 is a tetrazolium salt that is cleaved to formazan dye by mitochondrial dehydrogenases in viable cells. The amount of formazan was measured at 450 nm using a microplate reader (Dynex Technologies) with MRX Revelation software.
A general note: Tetrazolium assays rely on reduction of a dye to a coloured formazan, in cell work by metabolically active cells.

For assay [2], the system named is MCF-7 cells (human breast cancer cell line that express HER2 and HER3). Nature of the assay: MCF-7 cell proliferation stimulation assay (WST-1). Type of assay: cell-based. As to conditions: serum-free, 72 hours, FIG. 4. As for the experimental part:
MCF-7 cells were obtained from the American Type Culture Collection (ATCC). Stock cultures of MCF-7 were maintained in Eagle's MEM supplemented with 1% ITS-X (Invitrogen) and 10% fetal bovine serum. For proliferation assays, MCF-7 cells were transferred to serum-free medium (SFM) for 24 hours and then trypsinized and suspended at 1E5 cells/mL in SFM. Fifty microliters of cell suspension (5000 cells) were plated per well in 96 well microtiter plates. Serial dilutions of HER ligands or mutant proteins were prepared at twice the final concentration in SFM and 50 ul was added to wells, bringing the final volume to 100 ul at the desired final concentration. Plates were incubated for 72 hours at 37 C in a humidified 5% CO2 atmosphere. Cell proliferation was determined by addition of 10 ul/well of WST-1 Cell Proliferation Reagent (Roche Applied Sciences, Indianapolis, Ind.) for the last three hours of the proliferation period.

“Epidermal growth factor [EGF, agonistic ligand for EGFR]”: the “stimulation of HER5 cells (proliferation)” value in assay [1] is on record as “can be stimulated”. Further, in assay [2], the “stimulation of MCF-7 cells (proliferation)” value is listed as “not”.
